ChEMBL document CHEMBL5537164, “Discovery of Potent, Orally Bioavailable, Tricyclic NLRP3 Inhibitors” (J Med Chem, 2024)

Experiments:
[1] = In vivo inhibition of NLRP3 in LPS/ATP-induced C57BL/6 mouse model of acute peritonitis assessed as reduction in IL-1beta level at 30 mg/kg, po preadministered with compound for 1 hrs followed by LPS stimulation for 2 hrs and measured 15 mins after ATP addition by ELISA relative to control; format: functional; conditions: time 3.25 hrs
[2] = Protein binding in rat plasma; format: ADME, cell-free; conditions: read-out: PPB (converted)
[3] = Clearance in C57BL/6 mouse assessed as hepatic blood flow at 3 mg/kg, po or 1 mg/kg, iv measured after 24 hrs by LC-MS/MS analysis; format: ADME, organism-based, Liver; conditions: in vivo
[4] = Drug metabolism in human liver microsomes assessed as N-demethylation of piperidine ring mediated metabolite formation; format: ADME, Microsome
[5] = Drug concentration in blood of C57BL/6 mouse model of acute peritonitis at 3 mg/kg, po preadministered with compound for 1 hrs followed by LPS stimulation for 2 hrs and measured 15 mins after ATP addition by HPLC-MS/MS analysis; format: ADME, organism-based; conditions: whole blood, read-out: Ct
[6] = In vivo inhibition of NLRP3 in LPS/ATP-induced C57BL/6 mouse model of acute peritonitis assessed as reduction in IL-1beta level at 3 mg/kg, po preadministered with compound for 1 hrs followed by LPS stimulation for 2 hrs and measured 15 mins after ATP addition by ELISA relative to control; format: functional; conditions: time 3.25 hrs
[7] = Half-life in Beagle dog at 1 mg/kg, po or 0.1 mg/kg, iv measured after 24 hrs by LC-MS/MS analysis; format: ADME, organism-based, Canis lupus familiaris; conditions: in vivo
[8] = Dose normalized AUC in C57BL/6 mouse at 3 mg/kg, po measured after 24 hrs by LC-MS/MS analysis; format: ADME, organism-based; conditions: in vivo
[9] = Protein binding in mouse plasma; format: ADME, cell-free; conditions: read-out: PPB (converted)
[10] = AUC (0 to infinity) in C57BL/6 mouse at 3 mg/kg, po measured after 24 hrs by LC-MS/MS analysis; format: ADME, organism-based; conditions: in vivo
[11] = Metabolic stability in human liver microsomes assessed as intrinsic clearance; format: ADME, Microsome; conditions: read-out: CLH

CN1CCC[C@@H](NC(=O)Cn2nc(C(C)(C)O)n3c(cc4sc(Cl)cc43)c2=O)C1
inhibition in vivo at 30 mg/kg [1]: 91% | fraction unbound [2]: 0.22 | LBF [3]: 40% | Drug metabolism [4]: Metabolite_Detected | concentration at 3.25 h [5]: 70 nM | inhibition in vivo at 3 mg/kg [6]: 34% | half-life [7]: 5.7 h | AUC/dose [8]: 235 nmol·h/L | fraction unbound [9]: 0.03 | AUC(0-inf) [10]: 0.718 µM·h | microsomal CLint [11]: 38 µL/min/mg
